Assay results as given in patent US9649309B2 (priority 2014, dated 2017).
Where two headings read alike, the source gives them in different places. Each block holds one molecule with its values, some of them ahead of it.

How the values were obtained:
[1] = molecular target: T1, Axl (Homo sapiens (Human), UniProt P30530); assay: biochemical
[2] = molecular target: T2, Tyro3 (Homo sapiens (Human), UniProt Q06418); assay: biochemical
[3] = molecular target: T2, Tyro3; settings: read-out: IC50 Tyro3
[4] = molecular target: T1, Axl; settings: read-out: IC50 Axl

T1 sequence (P30530 26-894 limits assumed): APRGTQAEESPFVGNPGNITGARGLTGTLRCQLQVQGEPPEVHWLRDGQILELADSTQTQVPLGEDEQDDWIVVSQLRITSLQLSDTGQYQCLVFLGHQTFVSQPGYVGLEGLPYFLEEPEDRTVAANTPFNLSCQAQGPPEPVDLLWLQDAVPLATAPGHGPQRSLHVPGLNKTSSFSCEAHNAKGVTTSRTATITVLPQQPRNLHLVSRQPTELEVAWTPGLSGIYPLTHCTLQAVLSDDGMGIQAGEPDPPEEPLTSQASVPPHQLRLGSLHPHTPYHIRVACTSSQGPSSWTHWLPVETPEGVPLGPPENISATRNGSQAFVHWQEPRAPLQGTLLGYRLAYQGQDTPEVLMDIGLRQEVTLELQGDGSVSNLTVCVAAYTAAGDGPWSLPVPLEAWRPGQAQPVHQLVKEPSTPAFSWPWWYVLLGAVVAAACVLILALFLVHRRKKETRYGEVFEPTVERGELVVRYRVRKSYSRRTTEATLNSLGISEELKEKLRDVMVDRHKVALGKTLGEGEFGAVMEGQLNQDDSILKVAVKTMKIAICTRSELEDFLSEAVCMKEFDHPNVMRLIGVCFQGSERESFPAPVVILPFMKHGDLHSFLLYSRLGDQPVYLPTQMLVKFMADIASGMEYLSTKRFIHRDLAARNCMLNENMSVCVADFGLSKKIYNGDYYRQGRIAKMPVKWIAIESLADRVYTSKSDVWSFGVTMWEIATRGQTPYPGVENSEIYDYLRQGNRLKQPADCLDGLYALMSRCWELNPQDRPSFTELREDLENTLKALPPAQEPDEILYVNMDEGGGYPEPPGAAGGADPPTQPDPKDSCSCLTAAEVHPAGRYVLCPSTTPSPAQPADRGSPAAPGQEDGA
T2 sequence (Q06418 41-890 limits assumed): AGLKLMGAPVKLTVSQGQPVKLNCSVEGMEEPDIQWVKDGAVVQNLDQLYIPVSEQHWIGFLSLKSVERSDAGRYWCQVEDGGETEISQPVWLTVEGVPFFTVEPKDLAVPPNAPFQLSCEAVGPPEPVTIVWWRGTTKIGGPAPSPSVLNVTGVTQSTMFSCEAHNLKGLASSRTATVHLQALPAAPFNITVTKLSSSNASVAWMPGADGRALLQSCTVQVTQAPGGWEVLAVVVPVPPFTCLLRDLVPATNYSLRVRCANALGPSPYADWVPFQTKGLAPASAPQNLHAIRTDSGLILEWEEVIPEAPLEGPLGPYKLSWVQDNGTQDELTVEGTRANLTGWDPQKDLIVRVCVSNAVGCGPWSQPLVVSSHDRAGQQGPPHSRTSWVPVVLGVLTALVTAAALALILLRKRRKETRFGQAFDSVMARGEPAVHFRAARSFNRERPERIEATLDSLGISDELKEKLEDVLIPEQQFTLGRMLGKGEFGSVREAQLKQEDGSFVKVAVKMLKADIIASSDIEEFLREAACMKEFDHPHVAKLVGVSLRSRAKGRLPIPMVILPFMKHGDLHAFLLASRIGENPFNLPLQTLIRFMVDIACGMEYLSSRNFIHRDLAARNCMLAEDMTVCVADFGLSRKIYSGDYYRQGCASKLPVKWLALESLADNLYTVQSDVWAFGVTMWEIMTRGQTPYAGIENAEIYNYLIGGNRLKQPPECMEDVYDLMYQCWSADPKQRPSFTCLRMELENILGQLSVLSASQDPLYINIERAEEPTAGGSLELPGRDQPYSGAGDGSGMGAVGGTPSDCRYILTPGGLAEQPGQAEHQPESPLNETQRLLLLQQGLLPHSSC

SMILES: CCCCNc1ncc(C(=O)NCCCN2CCOCC2)c(N[C@H]2CC[C@H](O)CC2)n1 [UNC1839A]
IC50 [1]: 951 nM
IC50 [2]: 1070 nM

SMILES: CCCCNc1ncc(C(=O)NCCCCO)c(N[C@H]2CC[C@H](O)CC2)n1 [UNC1844A]
IC50 [1]: 1180 nM
IC50 [2]: 1080 nM

SMILES: CCCCNc1ncc(C(=O)Nc2ccc(CCO)cc2)c(N[C@H]2CC[C@H](O)CC2)n1 [UNC1846A]
IC50 [1]: 1190 nM
IC50 [2]: 1070 nM

SMILES: CCCCNc1ncc(C(=O)NCc2ccncc2)c(N[C@H]2CC[C@H](O)CC2)n1 [UNC1849A]
IC50 [1]: 1260 nM
IC50 [2]: 1740 nM

SMILES: CCCCNc1ncc(C(=O)NCCc2ccc(F)cc2)c(N[C@H]2CC[C@H](O)CC2)n1 [UNC1850A]
IC50 [1]: 1640 nM
IC50 [2]: 1210 nM

SMILES: CCCCNc1ncc(-c2ccc(CN3CCCN(C)CC3)cn2)c(N[C@H]2CC[C@H](O)CC2)n1 [UNC2405A]
IC50 [1]: 183 nM
IC50 [2]: 98 nM

SMILES: CCCCNc1ncc(-c2ccc(CN3CCCC3)cn2)c(N[C@H]2CC[C@H](O)CC2)n1 [UNC2490A]
IC50 [1]: 36 nM
IC50 [2]: 18 nM

SMILES: CCCCNc1ncc(-c2ccc(CNCC3CC3)cn2)c(N[C@H]2CC[C@H](O)CC2)n1 [UNC2547A]
IC50 [1]: 30 nM
IC50 [2]: 11 nM

SMILES: CCCCNc1ncc(-c2ccc(CNCc3ccncc3)cn2)c(N[C@H]2CC[C@H](O)CC2)n1 [UNC2571A]
IC50 [1]: 44 nM
IC50 [2]: 18 nM

SMILES: CCCC1(Nc2ncc(-c3ccc(CN4CCN(C)CC4)cn3)c(NC3CCC(O)CC3)n2)CC1 (stereo not drawn) [UNC3668A]
IC50 [3]: 409 nM
IC50 [4]: 5300 nM

SMILES: CCCCNc1ncc(-c2ccc(CNC3CC4CCC(C3)N4C)cn2)c(N[C@H]2CC[C@H](O)CC2)n1 (stereo partly drawn) [UNC4163A]
IC50 [3]: 8.7 nM
IC50 [4]: 20 nM

SMILES: CCCCNc1ncc(-c2ccc(CNC3CC4CCC(C3)N4C)cn2)c(N[C@H]2CC[C@H](O)CC2)n1 (stereo partly drawn) [UNC4165A]
IC50 [3]: 8 nM
IC50 [4]: 18 nM

SMILES: CCCCNc1ncc(-c2ccc(CN3C4CCCC3CC4)cn2)c(N[C@H]2CC[C@H](O)CC2)n1 [UNC4169A]
IC50 [3]: 3.9 nM
IC50 [4]: 9.6 nM

SMILES: CCCCNc1ncc(-c2cc(O)c(CN3CCCC3)cn2)c(N[C@H]2CC[C@H](O)CC2)n1 [UNC4230A]
IC50 [3]: 734 nM
IC50 [4]: 1760 nM

SMILES: CCCCNc1ncc(C(=O)NCc2ccc(-c3ccc4ccccc4c3)nc2)c(N[C@H]2CC[C@H](O)CC2)n1 [UNC4235A]
IC50 [3]: 1270 nM
IC50 [4]: 1800 nM

SMILES: CCCCNc1ncc(C(=O)NCc2ccc(-c3ccc(C#N)cc3)nc2)c(N[C@H]2CC[C@H](O)CC2)n1 [UNC4239A]
IC50 [3]: 305 nM
IC50 [4]: 977 nM

SMILES: CCCCNc1ncc(C(=O)NCc2ccc(C3=CCCCC3)nc2)c(N[C@H]2CC[C@H](O)CC2)n1 [UNC4256A]
IC50 [3]: 340 nM
IC50 [4]: 743 nM

SMILES: CCCCNc1ncc(-c2cc(NC3CCCCCC3)ncn2)c(N[C@H]2CC[C@H](O)CC2)n1 [UNC4261A]
IC50 [3]: 380 nM
IC50 [4]: 579 nM

SMILES: CCCCNc1ncc(C(=O)NCC2CCNCC2)c(N[C@H]2CC[C@H](O)CC2)n1 [UNC4287A]
IC50 [3]: 494 nM
IC50 [4]: 960 nM

SMILES: C=CCN1CCC(CNC(=O)c2cnc(NCCCC)nc2N[C@H]2CC[C@H](O)CC2)CC1 [UNC4303A]
IC50 [3]: 486 nM
IC50 [4]: 777 nM

SMILES: CCCCNc1ncc(C(=O)NCC2CCN(c3ccccc3)CC2)c(N[C@H]2CC[C@H](O)CC2)n1 [UNC4304A]
IC50 [3]: 333 nM
IC50 [4]: 664 nM

SMILES: CCCCNc1ncc(-c2cc(Nc3cccc([N+](=O)[O-])c3)ncn2)c(N[C@H]2CC[C@H](O)CC2)n1 [UNC4322A]
IC50 [3]: 889 nM
IC50 [4]: 30000 nM

SMILES: CCCCNc1ncc(-c2cc(Nc3cccc(C(C)C)c3)ncn2)c(N[C@H]2CC[C@H](O)CC2)n1 [UNC4323A]
IC50 [3]: 619 nM
IC50 [4]: 30000 nM

SMILES: CCCCNc1ncc(-c2cc(Nc3cccc(C(C)(C)C)c3)ncn2)c(N[C@H]2CC[C@H](O)CC2)n1 [UNC4333A]
IC50 [3]: 867 nM
IC50 [4]: 30000 nM

SMILES: CCCCNc1ncc(C(=O)NCc2cncs2)c(N[C@H]2CC[C@H](O)CC2)n1 [UNC4344A]
IC50 [3]: 276 nM
IC50 [4]: 196 nM

SMILES: CCCCNc1ncc(-c2cc(Nc3cccc(-c4ccccc4)c3)ncn2)c(N[C@H]2CC[C@H](O)CC2)n1 [UNC4353A]
IC50 [3]: 15100 nM
IC50 [4]: 30000 nM

SMILES: CCCCNc1ncc(-c2ccc(C3=CCNCC3)cn2)c(N[C@H]2CC[C@H](O)CC2)n1 [UNC4354A]
IC50 [3]: 24 nM
IC50 [4]: 27 nM

SMILES: CCCCNc1ncc(-c2ccc(C3=CCN(C(C)C)CC3)cn2)c(N[C@H]2CC[C@H](O)CC2)n1 [UNC4358A]
IC50 [3]: 42 nM
IC50 [4]: 24 nM

SMILES: CCCCNc1ncc(-c2ccc(C3=CCC(CN(C)C)CC3)cn2)c(N[C@H]2CC[C@H](O)CC2)n1 (stereo partly drawn) [UNC4387A]
IC50 [3]: 488 nM
IC50 [4]: 320 nM

Results, then the molecule that gave them:

IC50 [3]: 11 nM
IC50 [4]: 52 nM
SMILES: CCCCNc1ncc(-c2ccc(C3(N4CCOCC4)CCC3)cn2)c(NC2CCC(O)CC2)n1 (stereo not drawn) [UNC3666A]

IC50 [3]: 7.4 nM
IC50 [4]: 47 nM
SMILES: CCCCNc1ncc(-c2ccc(C3(N4CCOCC4)CCCC3)cn2)c(NC2CCC(O)CC2)n1 (stereo not drawn) [UNC3667A]

IC50 [3]: 22 nM
IC50 [4]: 47 nM
SMILES: CCCCNc1ncc(-c2ccc(CN3CCN[C@@H](C)C3)cn2)c(NC2CCC(O)CC2)n1 (stereo partly drawn) [UNC4106A]

IC50 [3]: 28 nM
IC50 [4]: 119 nM
SMILES: CCCCNc1ncc(-c2ccc(CN3C[C@H](C)NC[C@H]3C)cn2)c(NC2CCC(O)CC2)n1 (stereo partly drawn) [UNC4109A]

IC50 [3]: 19 nM
IC50 [4]: 32 nM
SMILES: CCCCNc1ncc(-c2ccc(CN3C[C@@H]4C[C@H]3CN4)cn2)c(NC2CCC(O)CC2)n1 (stereo partly drawn) [UNC4112A]

IC50 [3]: 18 nM
IC50 [4]: 55 nM
SMILES: CCCCNc1ncc(-c2ccc(CN3CCN[C@H](C)C3)cn2)c(NC2CCC(O)CC2)n1 (stereo partly drawn) [UNC4113A]

IC50 [3]: 9.4 nM
IC50 [4]: 13 nM
SMILES: CCCCNc1ncc(-c2ccc(CNC34CC5CC(CC(C5)C3)C4)cn2)c(N[C@H]2CC[C@H](O)CC2)n1 [UNC4166A]

IC50 [3]: 24 nM
IC50 [4]: 43 nM
SMILES: O[C@H]1CC[C@H](Nc2nc(NCCC3CC3)ncc2-c2ccc(CN3CCCC3)cn2)CC1 [UNC4197A]

IC50 [3]: 68 nM
IC50 [4]: 122 nM
SMILES: CCCCNc1ncc(-c2ccc(CCCN3CCCC3)cn2)c(N[C@H]2CC[C@H](O)CC2)n1 [UNC4220A]

IC50 [3]: 43 nM
IC50 [4]: 104 nM
SMILES: CCCCNc1ncc(-c2ccc(CCN3CCCC3)cn2)c(N[C@H]2CC[C@H](O)CC2)n1 [UNC4221A]

IC50 [3]: 16 nM
IC50 [4]: 39 nM
SMILES: CCCCNc1ncc(-c2cc(Cl)c(CN3CCCC3)cn2)c(N[C@H]2CC[C@H](O)CC2)n1 [UNC4222A]

IC50 [3]: 195 nM
IC50 [4]: 470 nM
SMILES: CCCCNc1ncc(C(=O)NCc2ccc(-c3ccccc3)nc2)c(N[C@H]2CC[C@H](O)CC2)n1 [UNC4234A]

IC50 [3]: 92 nM
IC50 [4]: 216 nM
SMILES: CCCCNc1ncc(C(=O)NCc2ccc(-c3cccnc3)nc2)c(N[C@H]2CC[C@H](O)CC2)n1 [UNC4236A]

IC50 [3]: 242 nM
IC50 [4]: 698 nM
SMILES: CCCCNc1ncc(C(=O)NCc2ccc(-c3ccc(OC)cc3)nc2)c(N[C@H]2CC[C@H](O)CC2)n1 [UNC4238A]

IC50 [3]: 244 nM
IC50 [4]: 489 nM
SMILES: CCCCNc1ncc(C(=O)NCc2ccc(-c3cccc(OC)c3)nc2)c(N[C@H]2CC[C@H](O)CC2)n1 [UNC4246A]

IC50 [3]: 156 nM
IC50 [4]: 336 nM
SMILES: CCCCNc1ncc(C(=O)NCc2ccc(-c3ccccc3OC)nc2)c(N[C@H]2CC[C@H](O)CC2)n1 [UNC4255A]

IC50 [3]: 256 nM
IC50 [4]: 602 nM
SMILES: CCCCNc1ncc(C(=O)NCc2ccc(-c3c(C)noc3C)nc2)c(N[C@H]2CC[C@H](O)CC2)n1 [UNC4260A]

IC50 [3]: 234 nM
IC50 [4]: 513 nM
SMILES: CCCCNc1ncc(-c2cc(Nc3ccc(OC)cc3)ncn2)c(N[C@H]2CC[C@H](O)CC2)n1 [UNC4269A]

IC50 [3]: 121 nM
IC50 [4]: 158 nM
SMILES: CCCCNc1ncc(-c2cc(Nc3cccc(OC)c3)ncn2)c(N[C@H]2CC[C@H](O)CC2)n1 [UNC4270A]

IC50 [3]: 194 nM
IC50 [4]: 12300 nM
SMILES: CCCCNc1ncc(-c2cc(Nc3ccccc3OC)ncn2)c(N[C@H]2CC[C@H](O)CC2)n1 [UNC4272A]

IC50 [3]: 42 nM
IC50 [4]: 67 nM
SMILES: CCCCNc1ncc(-c2ccc(CCN3CCCN(C)CC3)cn2)c(N[C@H]2CC[C@H](O)CC2)n1 [UNC4279A]

IC50 [3]: 253 nM
IC50 [4]: 572 nM
SMILES: CCCCNc1ncc(C(=O)NCc2ccc3ccccc3n2)c(N[C@H]2CC[C@H](O)CC2)n1 [UNC4286A]

IC50 [3]: 262 nM
IC50 [4]: 1050 nM
SMILES: CCCCNc1ncc(C(=O)NCC2CCN(C(C)=O)CC2)c(N[C@H]2CC[C@H](O)CC2)n1 [UNC4288A]

IC50 [3]: 178 nM
IC50 [4]: 420 nM
SMILES: CCCCNc1ncc(C(=O)NCC2CCN(C(C)C)CC2)c(N[C@H]2CC[C@H](O)CC2)n1 [UNC4289A]

IC50 [3]: 153 nM
IC50 [4]: 292 nM
SMILES: CCCCNc1ncc(C(=O)NCC2CCN(C3CCCCC3)CC2)c(N[C@H]2CC[C@H](O)CC2)n1 [UNC4302A]

IC50 [3]: 217 nM
IC50 [4]: 471 nM
SMILES: CCCCNc1ncc(C(=O)NCc2cncnc2)c(N[C@H]2CC[C@H](O)CC2)n1 [UNC4307A]

IC50 [3]: 56 nM
IC50 [4]: 137 nM
SMILES: CCCCNc1ncc(-c2ccc(CC3CCNCC3)cn2)c(N[C@H]2CC[C@H](O)CC2)n1 [UNC4335A, trans-4-((2-(butylamino)-5-(5-(piperidin-4-ylmethyl)pyridin-2-yl)pyrimidin-4-yl)amino)cyclohexan-1-ol]

IC50 [3]: 13 nM
IC50 [4]: 40 nM
SMILES: CCCCNc1ncc(-c2ccc(C=C3CCNCC3)cn2)c(N[C@H]2CC[C@H](O)CC2)n1 [UNC4336A]

IC50 [3]: 20 nM
IC50 [4]: 42 nM
SMILES: CCCCNc1ncc(-c2ccc(C=C3CCN(C)CC3)cn2)c(N[C@H]2CC[C@H](O)CC2)n1 [UNC4338A]

IC50 [3]: 22 nM
IC50 [4]: 39 nM
SMILES: CCCCNc1ncc(-c2ccc(CC3CCN(C(C)C)CC3)cn2)c(N[C@H]2CC[C@H](O)CC2)n1 [UNC4339A, trans-4-((2-(butylamino)-5-(5-((1-isopropylpiperidin-4-yl)methyl)pyridin-2-yl)pyrimidin-4-yl)amino)cyclohexan-1-ol]

IC50 [3]: 53 nM
IC50 [4]: 53 nM
SMILES: CCCCNc1ncc(-c2ccc(CC3CCNC3)cn2)c(N[C@H]2CC[C@H](O)CC2)n1 (stereo partly drawn) [UNC4386A, trans-4-((2-(butylamino)-5-(5-(pyrrolidin-3-ylmethyl)pyridin-2-yl)pyrimidin-4-yl)amino)cyclohexan-1-ol]
